# Measured values taken from patent publication US20070249670A1, “Glycogen Phosphorylase Inhibitor Compounds and Pharmaceutical Compositions Thereof” (SMITHKLINE BEECHAM CORPORATION, priority 2004, published 2007).
# Molecular target: T1, human liver glycogen phosphorylase a (HLGPa) (Homo sapiens, UniProt P06737)
# T1 construct: creating a full-length cDNA fused at the 5′ end to codons for methionine-glycine-alanine-histidine; 6xHis tag (leader Met-Gly-Ala-His6-Gly-Gly) (N); made in house; host or cells: E. coli (bacterial expression plasmid pTXK1007LTev)
# T1 sequence (P06737 2-847 limits assumed): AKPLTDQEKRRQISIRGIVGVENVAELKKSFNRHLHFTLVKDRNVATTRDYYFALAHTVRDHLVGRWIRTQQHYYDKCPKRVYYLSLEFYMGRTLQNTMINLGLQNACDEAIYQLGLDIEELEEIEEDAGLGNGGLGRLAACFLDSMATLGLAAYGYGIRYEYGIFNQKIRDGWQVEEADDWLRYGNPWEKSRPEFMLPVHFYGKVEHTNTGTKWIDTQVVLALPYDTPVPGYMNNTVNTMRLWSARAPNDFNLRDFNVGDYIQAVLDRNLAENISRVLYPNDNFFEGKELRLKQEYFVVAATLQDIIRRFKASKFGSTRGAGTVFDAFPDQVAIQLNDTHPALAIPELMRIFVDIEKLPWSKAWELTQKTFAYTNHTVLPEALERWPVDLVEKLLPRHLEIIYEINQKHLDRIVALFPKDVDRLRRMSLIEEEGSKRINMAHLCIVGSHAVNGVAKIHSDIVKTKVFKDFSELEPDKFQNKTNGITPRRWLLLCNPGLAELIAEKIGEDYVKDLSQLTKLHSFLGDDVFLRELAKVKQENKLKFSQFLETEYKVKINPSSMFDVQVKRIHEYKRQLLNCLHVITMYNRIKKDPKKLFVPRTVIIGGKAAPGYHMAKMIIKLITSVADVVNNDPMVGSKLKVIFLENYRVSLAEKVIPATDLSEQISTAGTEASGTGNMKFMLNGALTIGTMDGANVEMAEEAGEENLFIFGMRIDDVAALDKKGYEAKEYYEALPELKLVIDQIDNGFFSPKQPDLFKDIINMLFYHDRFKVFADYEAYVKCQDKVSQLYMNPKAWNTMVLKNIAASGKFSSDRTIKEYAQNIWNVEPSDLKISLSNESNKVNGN
# Test: Human liver glycogen phosphorylase a enzymatic activity assay (coupled, fluorescent resorufin readout, with and without 10 mM glucose)
# Type: biochemical
# Conditions: human liver glycogen phosphorylase a enzymatic activity assay
row,SMILES,IC50 [µM]
1,"Cc1cccc(Cl)c1NC(=O)Nc1cc2ccccc2cc1C(=O)N[C@@H](Cc1ccc(Br)cc1)C(=O)O [Example 91, 4-bromo-N-[3-({[(2-chloro-6-methylphenyl)amino]carbonyl}amino)-2-naphthoyl]-L-phenylalanine]",7.88
2,"CCc1cccc(CC)c1NC(=O)Nc1cc2ccccc2cc1C(=O)N[C@H](C(=O)O)C1CCCCC1 [Example 93, (2S)-cyclohexyl({[3-({[(2,6-diethylphenyl)amino]carbonyl}amino)-2-naphthalenyl]carbonyl}amino)ethanoic acid]",0.59
3,"Cc1cccc(C)c1NC(=O)Nc1ccccc1C(=O)N[C@H](C(=O)O)C1CCCCC1 [Example 94, (2S)-cyclohexyl{[2-({[(2,6-dimethylphenyl)amino]carbonyl}amino)benzoyl]amino}acetic acid]",0.53
4,"Cc1ccccc1NC(=O)Nc1cc2ccccc2cc1C(=O)NC(C(=O)O)c1ccccc1 (stereo not shown) [Example 95, {[3-({[(2-methylphenyl)amino]carbonyl}amino)-2-naphthoyl]amino}(phenyl)acetic acid]",9.89
5,"Cc1ccccc1NC(=O)Nc1cc2ccccc2cc1C(=O)N[C@@H](Cc1cccs1)C(=O)O [Example 96, N-{[3-({[(2-methylphenyl)amino]carbonyl}amino)-2-naphthalenyl]carbonyl}-3-(2-thienyl)-L-alanine]",5.07
6,"Cc1cccc(C)c1NC(=O)Nc1cc2ccccc2cc1C(=O)NC(C(=O)O)c1ccccc1 (stereo not shown) [Example 97, {[3-({[(2,6-dimethylphenyl)amino]carbonyl}amino)-2-naphthoyl]amino}(phenyl)acetic acid]",0.66
7,"Cc1cccc(C)c1NC(=O)Nc1cc2ccccc2cc1C(=O)N[C@@H](Cc1cccs1)C(=O)O [Example 98, N-{[3-({[(2,6-dimethylphenyl)amino]carbonyl}amino)-2-naphthalenyl]carbonyl}-3-(2-thienyl)-L-alanine]",0.54
8,"Cc1cccc(C)c1NC(=O)Nc1cc2ccccc2cc1C(=O)N[C@@H](CC1CCCCC1)C(=O)O [Example 99, 3-cyclohexyl-N-[3-({[(2,6-dimethylphenyl)amino]carbonyl}amino)-2-naphthoyl]-L-alanine]",0.49
9,"O=C(Nc1ccccc1Cl)Nc1cc2ccccc2cc1C(=O)NC(C(=O)O)c1ccccc1 (stereo not shown) [Example 100, {[3-({[(2-chlorophenyl)amino]carbonyl}amino)-2-naphthoyl]amino}(phenyl)acetic acid]",7.63
10,"O=C(Nc1ccccc1Cl)Nc1cc2ccccc2cc1C(=O)N[C@@H](Cc1cccs1)C(=O)O [Example 101, N-{[3-({[(2-chlorophenyl)amino]carbonyl}amino)-2-naphthalenyl]carbonyl}-3-(2-thienyl)-L-alanine]",2.78
11,"Cc1cccc(Cl)c1NC(=O)Nc1cc2ccccc2cc1C(=O)N[C@@H](Cc1cccs1)C(=O)O [Example 102, N-{[3-({[(2-chloro-6-methylphenyl)amino]carbonyl}amino)-2-naphthalenyl]carbonyl}-3-(2-thienyl)-L-alanine]",0.36
12,"Cc1cc(C)c(NC(=O)Nc2cc3ccccc3cc2C(=O)NC(C(=O)O)c2ccccc2)c(C)c1 (stereo not shown) [Example 103, Phenyl({[3-({[(2,4,6-trimethylphenyl)amino]carbonyl}amino)-2-naphthalenyl]carbonyl}amino)acetic acid]",0.06
13,"Cc1cccc(C(C)C)c1NC(=O)Nc1cc2ccccc2cc1C(=O)NC(C(=O)O)c1ccccc1 (stereo not shown) [Example 104, {[3-({[(2-isopropyl-6-methylphenyl)amino]carbonyl}amino)-2-naphthoyl]amino}(phenyl)acetic acid]",1.04
14,"COc1cc(NC(=O)Nc2c(C)cccc2C)c(C(=O)NC(C(=O)O)c2ccccc2)cc1OC (stereo not shown) [Example 105, {[2-({[(2,6-dimethylphenyl)amino]carbonyl}amino)-4,5-dimethoxybenzoyl]amino}(phenyl)acetic acid]",19.6
15,"COc1cc(NC(=O)Nc2c(C)cc(C)cc2C)c(C(=O)NC(C(=O)O)c2ccccc2)cc1OC (stereo not shown) [Example 106, [(2-{[(mesitylamino)carbonyl]amino}-4,5-dimethoxybenzoyl)amino](phenyl)acetic acid]",4.23
16,"COc1cc(NC(=O)Nc2c(C)cccc2Cl)c(C(=O)NC(C(=O)O)c2ccccc2)cc1OC (stereo not shown) [Example 107, {[2-({[(2-chloro-6-methylphenyl)amino]carbonyl}amino)-4,5-dimethoxybenzoyl]amino}(phenyl)acetic acid]",12.2

row,SMILES,IC50 [µM]
1,"Cc1cccc(C(C)C)c1NC(=O)Nc1cc2ccccc2cc1C(=O)N[C@@H](C(=O)O)C1CCCCC1 [Example 109, (2R)-cyclohexyl{[3-({[(2-isopropyl-6-methylphenyl)amino]carbonyl}amino)-2-naphthoyl]amino}acetic acid]",19.8
2,"Cc1cccc(Cl)c1NC(=O)Nc1cc(F)c(F)cc1C(=O)N[C@H](C(=O)O)C1CCCCC1 [Example 112, (2S)-{[2-({[(2-chloro-6-methylphenyl)amino]carbonyl}amino)-4,5-difluorobenzoyl]amino}(cyclohexyl)acetic acid]",0.86
3,"COc1cc(NC(=O)Nc2c(C)cccc2Cl)c(C(=O)N[C@H](C(=O)O)C2CCCCC2)cc1OC [Example 113, (2S)-{[2-({[(2-chloro-6-methylphenyl)amino]carbonyl}amino)-4,5-dimethoxybenzoyl]amino}(cyclohexyl)acetic acid]",7.04
4,"Cc1cccc(Cl)c1NC(=O)Nc1cc(F)c(F)cc1C(=O)N[C@@H](CC1CCCCC1)C(=O)O [Example 114, N-[2-({[(2-chloro-6-methylphenyl)amino]carbonyl}amino)-4,5-difluorobenzoyl]-3-cyclohexyl-L-alanine]",18.7
5,"COc1cc(NC(=O)Nc2c(C)cccc2Cl)c(C(=O)N[C@@H](CC2CCCCC2)C(=O)O)cc1OC [Example 115, N-[2-({[(2-chloro-6-methylphenyl)amino]carbonyl}amino)-4,5-dimethoxybenzoyl]-3-cyclohexyl-L-alanine]",13
6,"Cc1cccc(C)c1NC(=O)Nc1cc(F)c(F)cc1C(=O)N[C@H](C(=O)O)C1CCCCC1 [Example 116, (2S)-cyclohexyl{[2-({[(2,6-dimethylphenyl)amino]carbonyl}amino)-4,5-difluorobenzoyl]amino}acetic acid]",1.63
7,"COc1cc(NC(=O)Nc2c(C)cccc2C)c(C(=O)N[C@H](C(=O)O)C2CCCCC2)cc1OC [Example 117, (2S)-cyclohexyl{[2-({[(2,6-dimethylphenyl)amino]carbonyl}amino)-4,5-dimethoxybenzoyl]amino}acetic acid]",14.7
8,"Cc1cccc(C)c1NC(=O)Nc1cc(F)c(F)cc1C(=O)N[C@@H](CC1CCCCC1)C(=O)O [Example 118, 3-cyclohexyl-N-[2-({[(2,6-dimethylphenyl)amino]carbonyl}amino)-4,5-difluorobenzoyl]-L-alanine]",15.7
9,"COc1cc(NC(=O)Nc2c(C)cccc2C)c(C(=O)N[C@@H](CC2CCCCC2)C(=O)O)cc1OC [Example 119, 3-cyclohexyl-N-[2-({[(2,6-dimethylphenyl)amino]carbonyl}amino)-4,5-dimethoxybenzoyl]-L-alanine]",13.6
10,"CCc1cccc(CC)c1NC(=O)Nc1cc2ccccc2cc1C(=O)NC(C(=O)O)c1ccccc1 (stereo not shown) [Example 120, {[3-({[(2,6-diethylphenyl)amino]carbonyl}amino)-2-naphthoyl]amino}(phenyl)acetic acid]",24.6
11,"CCc1cccc(CC)c1NC(=O)Nc1cc(Cl)ccc1C(=O)N[C@H](Cc1ccccc1F)C(=O)O [Example 121, N-[4-chloro-2-({[(2,6-diethylphenyl)amino]carbonyl}amino)benzoyl]-2-fluoro-D-phenylalanine]",3.44
12,"Cc1cccc(Cl)c1NC(=O)Nc1cc2ccccc2cc1C(=O)N[C@@H](CC1CCCCC1)C(=O)O [Example 122, N-[3-({[(2-chloro-6-methylphenyl)amino]carbonyl}amino)-2-naphthoyl]-3-cyclohexyl-L-alanine]",2.23
13,Cc1cccc(Cl)c1NC(=O)Nc1cc2ccccc2cc1C(=O)NC(C(=O)O)c1ccccc1 (stereo not shown) [Example 123],0.27
14,"Cc1cccc(Cl)c1NC(=O)Nc1cc2ccccc2cc1C(=O)N[C@H](Cc1ccccc1F)C(=O)O [Example 124, N-[3-({[(2-chloro-6-methylphenyl)amino]carbonyl}amino)-2-naphthoyl]-2-fluoro-D-phenylalanine]",5.82
15,"Cc1cccc(Cl)c1NC(=O)Nc1cc(Cl)ccc1C(=O)N[C@@H](CC1CCCCC1)C(=O)O [Example 125, N-[4-chloro-2-({[(2-chloro-6-methylphenyl)amino]carbonyl}amino)benzoyl]-3-cyclohexyl-L-alanine]",28.6
